Test results: PubChem BioAssay AID256 (DTP/NCI, 2004)
Inconclusive results and toxic doses are left out. Rule for the calls: active = survival T/C of 150% or more; inactive = T/C below 125% in these data.

Test system: CD2F1 mice, L1210 leukemia ip, survival T/C
Assay: NCI In Vivo Anticancer Drug Screen. Data for tumor model L1210 Leukemia (intraperitoneal) in CD2F1 (CDF1) mice
Conditions: higher = longer survival
Method in brief: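 Activity against a transplanted murine tumor was judged by comparing the compound group with a vehicle group. The outcome in the treated animals was divided by that in the controls.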

[1] = endpoint: mean survival time, dose: 100.0 mg/kg/injection, schedule: Q04DX003 (ip), vehicle: saline with Tween-80
[2] = endpoint: mean survival time, dose: 100.0 mg/kg/injection, schedule: Q01DX009 (ip), vehicle: saline with Tween-80
[3] = endpoint: mean survival time, dose: 200.0 mg/kg/injection, schedule: Q01DX009 (ip), vehicle: saline with Tween-80
[4] = endpoint: mean survival time, dose: 400.0 mg/kg/injection, schedule: Q01DX009 (ip), vehicle: saline with Tween-80
[5] = endpoint: mean survival time, dose: 100.0 mg/kg/injection, schedule: Q01DX009 (ip), vehicle: saline
[6] = endpoint: mean survival time, dose: 200.0 mg/kg/injection, schedule: Q01DX009 (ip), vehicle: saline
[7] = endpoint: mean survival time, dose: 400.0 mg/kg/injection, schedule: Q01DX009 (ip), vehicle: saline
[8] = endpoint: mean survival time, dose: 100.0 mg/kg/injection, schedule: Q04DX003 (ip), vehicle: Klucel (hydroxypropylcellulose) (HPC)
[9] = endpoint: mean survival time, dose: 200.0 mg/kg/injection, schedule: Q04DX003 (ip), vehicle: Klucel (hydroxypropylcellulose) (HPC)
[10] = endpoint: mean survival time, dose: 100.0 mg/kg/injection, schedule: Q01DX001 (ip), vehicle: saline with Tween-80
[11] = endpoint: mean survival time, dose: 200.0 mg/kg/injection, schedule: Q01DX001 (ip), vehicle: saline with Tween-80
[12] = endpoint: mean survival time, dose: 400.0 mg/kg/injection, schedule: Q01DX001 (ip), vehicle: saline with Tween-80
[13] = endpoint: mean survival time, dose: 200.0 mg/kg/injection, schedule: Q04DX003 (ip), vehicle: saline with Tween-80
[14] = endpoint: mean survival time, dose: 400.0 mg/kg/injection, schedule: Q04DX003 (ip), vehicle: saline with Tween-80
[15] = endpoint: mean survival time, dose: 100.0 mg/kg/injection, schedule: Q04DX003 (ip), vehicle: saline
[16] = endpoint: mean survival time, dose: 200.0 mg/kg/injection, schedule: Q04DX003 (ip), vehicle: saline
[17] = endpoint: mean survival time, dose: 400.0 mg/kg/injection, schedule: Q04DX003 (ip), vehicle: saline

Measured: T/C

Cc1cccc([N+](=O)[O-])n1
inactive: endpoint: mean survival time, dose: 25.0 mg/kg/injection, schedule: Q04DX003 (ip), vehicle: saline with Tween-80 109 % of control | endpoint: mean survival time, dose: 50.0 mg/kg/injection, schedule: Q04DX003 (ip), vehicle: saline with Tween-80 95 % of control | [1] 98 % of control

COc1ccccc1[As](=O)(O)CC(O)COc1ccc(Cl)cc1Cl (stereo unspecified)
inactive: endpoint: mean survival time, dose: 6.25 mg/kg/injection, schedule: Q04DX003 (ip), vehicle: saline 98 % of control | endpoint: mean survival time, dose: 12.5 mg/kg/injection, schedule: Q04DX003 (ip), vehicle: saline 96 % of control

C/C=C/CC1(Cc2ccccc2)C(=O)NC(=S)NC1=O
inactive: endpoint: mean survival time, dose: 9.5 mg/kg/injection, schedule: Q01DX001 (ip), vehicle: other 108 % of control | endpoint: mean survival time, dose: 19.0 mg/kg/injection, schedule: Q01DX001 (ip), vehicle: other 111 % of control

CS(C)=C1C(=O)NC(=S)NC1=O
inactive: endpoint: median survival time, dose: 20.75 mg/kg/injection, schedule: Q01DX009 (ip), vehicle: saline with Tween-80 108 % of control | endpoint: median survival time, dose: 41.5 mg/kg/injection, schedule: Q01DX009 (ip), vehicle: saline with Tween-80 102 % of control | endpoint: median survival time, dose: 83.0 mg/kg/injection, schedule: Q01DX009 (ip), vehicle: saline with Tween-80 111 % of control | endpoint: median survival time, dose: 166.0 mg/kg/injection, schedule: Q01DX009 (ip), vehicle: saline with Tween-80 107 % of control

CCOP(=S)(OCC)S/C(C(=O)NC)=C(/C)O
inactive: endpoint: mean survival time, dose: 100.0 mg/kg/injection, schedule: Q04DX003 (sc), vehicle: Klucel + Tween-80 96 % of control | endpoint: mean survival time, dose: 200.0 mg/kg/injection, schedule: Q04DX003 (sc), vehicle: Klucel + Tween-80 100 % of control | endpoint: mean survival time, dose: 400.0 mg/kg/injection, schedule: Q04DX003 (sc), vehicle: Klucel + Tween-80 115 % of control | endpoint: mean survival time, dose: 600.0 mg/kg/injection, schedule: Q04DX003 (sc), vehicle: Klucel + Tween-80 96 % of control

CCOC(=O)NC(CCl)C(=O)OC (stereo unspecified)
inactive: [2] 104 % of control | [3] 98 % of control | [4] 98 % of control

CCCOP(=O)(CCl)OCCC
inactive: [5] 95 % of control | [6] 100 % of control | [7] 97 % of control

CC1[N-]C(/C=N/O)NC(C)N1.CC1[N-]C(/C=N/O)NC(C)N1.[Br][Ni+2][Br] (stereo unspecified)
inactive: endpoint: mean survival time, dose: 5.0 mg/kg/injection, schedule: Q01DX001 (ip), vehicle: saline 105 % of control | endpoint: mean survival time, dose: 10.0 mg/kg/injection, schedule: Q01DX001 (ip), vehicle: saline 103 % of control | endpoint: mean survival time, dose: 20.0 mg/kg/injection, schedule: Q01DX001 (ip), vehicle: saline 105 % of control | endpoint: mean survival time, dose: 40.0 mg/kg/injection, schedule: Q01DX001 (ip), vehicle: saline 108 % of control | endpoint: mean survival time, dose: 75.0 mg/kg/injection, schedule: Q01DX001 (ip), vehicle: saline 106 % of control | endpoint: mean survival time, dose: 80.0 mg/kg/injection, schedule: Q01DX001 (ip), vehicle: saline 105 % of control

C#CCOC(=O)NCCC
inactive: [8] 96 % of control | [9] 100 % of control

O=C(Nc1ccccc1)Nc1cc(Cl)ccc1O
inactive: [10] 98 % of control | [11] 98 % of control | [12] 91 % of control

CC(=O)c1ccc(N=Nc2c(N)nc(N)[nH]c2=O)cc1
inactive: [2] 86 % of control | [3] 105 % of control | [4] 102 % of control

O=[N+]([O-])c1ccc2nc3c(nc2c1)-c1cccc2cccc-3c12
inactive: [2] 98 % of control | [3] 98 % of control | [4] 98 % of control

COC1CCC2=C(C1)C(=O)CC1c3ccccc3CCN21 (stereo unspecified) (tested in a mixture with another compound)
inactive: endpoint: mean survival time, dose: 6.25 mg/kg/injection, schedule: Q01DX009 (ip), vehicle: saline with Tween-80 96 % of control | endpoint: mean survival time, dose: 12.5 mg/kg/injection, schedule: Q01DX009 (ip), vehicle: saline with Tween-80 98 % of control | endpoint: mean survival time, dose: 25.0 mg/kg/injection, schedule: Q01DX009 (ip), vehicle: saline with Tween-80 96 % of control

CCCCOC(=O)CNC(=O)c1ccc(C)c(OCc2ccccc2)c1[N+](=O)[O-]
inactive: endpoint: mean survival time, dose: 75.0 mg/kg/injection, schedule: Q01DX001 (ip), vehicle: steriod suspending solution 100 % of control | endpoint: mean survival time, dose: 150.0 mg/kg/injection, schedule: Q01DX001 (ip), vehicle: steriod suspending solution 100 % of control | endpoint: mean survival time, dose: 300.0 mg/kg/injection, schedule: Q01DX001 (ip), vehicle: steriod suspending solution 100 % of control

COCC/C(COC)=N\N=C(/CCOC)COC
inactive: [5] 102 % of control | [8] 102 % of control | [1] 101 % of control | [6] 108 % of control | [9] 102 % of control | [13] 101 % of control | endpoint: mean survival time, dose: 400.0 mg/kg/injection, schedule: Q04DX003 (ip), vehicle: Klucel (hydroxypropylcellulose) (HPC) 114 % of control | [14] 106 % of control

C[Si](C)(C)C1CCC2C3C=CC(C3)C21 (stereo unspecified)
inactive: endpoint: mean survival time, dose: 100.0 mg/kg/injection, schedule: Q04DX003 (ip), vehicle: alcohol 107 % of control | endpoint: mean survival time, dose: 200.0 mg/kg/injection, schedule: Q04DX003 (ip), vehicle: alcohol 96 % of control | endpoint: mean survival time, dose: 400.0 mg/kg/injection, schedule: Q04DX003 (ip), vehicle: alcohol 96 % of control

O=S(=O)(O)c1cncc(S(=O)(=O)O)n1
inactive: [5] 90 % of control | [15] 100 % of control | [6] 97 % of control | [16] 98 % of control | [7] 100 % of control | [17] 93 % of control

CC(=O)Nc1c[n+]([O-])cc2ccccc12
inactive: [2] 105 % of control | [1] 94 % of control | [3] 98 % of control | [13] 96 % of control | [4] 100 % of control | [14] 94 % of control

CC(=O)NC1CC(n2cnc3c(=O)[nH]cnc32)OC1C(C)O (stereo unspecified)
inactive: endpoint: mean survival time, dose: 12.5 mg/kg/injection, schedule: Q01DX005 (ip), vehicle: water 101 % of control | endpoint: mean survival time, dose: 25.0 mg/kg/injection, schedule: Q01DX005 (ip), vehicle: water 98 % of control | endpoint: mean survival time, dose: 50.0 mg/kg/injection, schedule: Q01DX005 (ip), vehicle: water 101 % of control | endpoint: mean survival time, dose: 100.0 mg/kg/injection, schedule: Q01DX005 (ip), vehicle: water 98 % of control | endpoint: mean survival time, dose: 200.0 mg/kg/injection, schedule: Q01DX005 (ip), vehicle: water 92 % of control

ON=C1c2c(ccc3ccccc23)-c2ccc3ccccc3c21
inactive: [10] 95 % of control | [2] 98 % of control | [11] 96 % of control | [3] 95 % of control | [12] 102 % of control | [4] 93 % of control

CCOc1ccc(-n2c(O)c(N=Nc3ccccc3)c(=O)n(-c3ccccc3)c2=S)cc1
inactive: [10] 92 % of control | [11] 102 % of control

C(/C=C/c1ccccc1)=Nc1ccc(CCc2ccc(N=C/C=C/c3ccccc3)cc2)cc1
inactive: [10] 103 % of control | [11] 93 % of control | [12] 91 % of control

Clc1ccc2c(NCc3ccncc3)ccnc2c1
inactive: [1] 96 % of control | [13] 95 % of control | [14] 96 % of control

Cc1ccc([N+](=O)[O-])cc1NC(=O)SCCOC(=O)COc1ccc(Cl)cc1
inactive: [1] 98 % of control | [13] 96 % of control | [14] 98 % of control

Cc1ccc(S(=O)(=O)OC2C(O)OC3COC(c4ccccc4)OC3C2OS(=O)(=O)c2ccc(C)cc2)cc1 (stereo unspecified)
inactive: [10] 94 % of control | [11] 105 % of control | [12] 94 % of control

O=C(NC(CSSCC(NC(=O)OCc1ccccc1)C(=O)O)C(=O)O)OCc1ccccc1 (stereo unspecified)
inactive: endpoint: mean survival time, dose: 100.0 mg/kg/injection, schedule: Q01DX009 (ip), vehicle: other 95 % of control | endpoint: mean survival time, dose: 200.0 mg/kg/injection, schedule: Q01DX009 (ip), vehicle: other 95 % of control | endpoint: mean survival time, dose: 400.0 mg/kg/injection, schedule: Q01DX009 (ip), vehicle: other 98 % of control

COC(=O)C1(C)CCCC2(C)C1CCC13OCC(CC21)C(O)(C(C)C)C3O (stereo unspecified)
inactive: [1] 95 % of control | [13] 97 % of control | [14] 103 % of control

CCN(CC)CCCNc1ncnc(Cl)c1C(=C(C)C)c1ccccc1
inactive: endpoint: mean survival time, dose: 100.0 mg/kg/injection, schedule: Q01DX001 (ip), vehicle: saline 97 % of control | endpoint: mean survival time, dose: 200.0 mg/kg/injection, schedule: Q01DX001 (ip), vehicle: saline 105 % of control

Nc1cccnc1
inactive: endpoint: mean survival time, dose: 5.0 mg/kg/injection, schedule: Q04DX003 (ip), vehicle: saline 92 % of control | endpoint: mean survival time, dose: 10.0 mg/kg/injection, schedule: Q04DX003 (ip), vehicle: saline 94 % of control | endpoint: mean survival time, dose: 20.0 mg/kg/injection, schedule: Q04DX003 (ip), vehicle: saline 94 % of control

CCN(CC)CCCNC(C)=O
inactive: [15] 98 % of control | [16] 96 % of control | [17] 101 % of control
